Patent US8835447B2, “Method for treating androgen receptor positive cancers” (priority 2009, dated 2014)
“Also recorded” adds a separate entry of the source.

How the values were obtained:
C4-2 tumors = assay: C4-2 xenograft model in nude mice; type: in vivo, mouse; details: 6 daily i.p. injections, 100xIC50 dose
Excerpt: FIGS. 6A and 6B provide data showing anti-tumor activity of the selected hits in mouse models of androgen-independent PCa. FIG. 6A provides a graphical representation of data obtained from i.p. injection of the listed compounds or DMSO vehicle into nude mice carrying subcutaneous (s.c.) C4-2 tumors. Six daily injections were given starting when tumors were around 100 mm3 in size. There were 4-5 mice per group with two tumors per mouse. Asterisks (*) and number signs (#) are placed under the means of measurement in the c6 and c11 groups respectively which are statistically different from the control group by ANOVA test (>99%) B. C52 (9 mg/kg or 18 mg/kg) or DMSO vehicle was injected into the tail vein of nude mice carrying s.c. CWR22R tumors. Five daily injections were given starting when tumors were around 40 mm3 in size. There were 10 mice per group with one tumor per mouse. Asterisks (*) are placed under the means of measurement which are statistically different from the control group by ANOVA test (>99%). Error bars in both FIGS. 6A and B—standard deviation between the size of tumors within a given treatment group.
Testing of the anti-tumor effect of compounds in mice was done according to an IACUC-approved protocol in 8 week old male athymic nude mice from Harlan (Indianapolis, Ind.). For the C4-2 xenograft model, 10^6 C4-2 cells were injected subcutaneously (s.c.) in 2 sites of each mouse in 50% matrigel (BD Biosciences, Bradford, Mass.) in PBS. Upon development of visible tumors, they were measured using digital caliper. Tumor volume was calculated according to the formula: […]. Mice were injected with compounds i.p. daily for 6 days starting on the day when at least one tumor per mouse reached 100 mm^3 in size. Five mice per group were used. For the CWR22R xenograft model, CWR22R cells were inoculated (10^5 cells per inoculum) in 50% matrigel, one site per mouse. Treatment was started when the tumor grew to a size of at least 25 mm^3. Compounds were diluted in captisol (CyDex, Lenexa, Kans.) and delivered intravenously (to reduce “first pass” liver effect) once a day for 5 days. Ten mice per group were used. Mice were monitored daily and tumors were measured every other day. Mice were euthanized according to institutional regulations when the size of tumor reached 1000 mm^3. Comparison of the tumor growth in control and treated mice was done using ANOVA test.
We evaluated the potential anti-tumor effect of the hits using C4-2 and CWR22R xenograft models of androgen-independent PCa in nude mice. Groups of C4-2 tumor-bearing mice (4-5 mice per group, each with two tumors) were given 6 daily i.p. injections of compound (100×IC50 dose) or DMSO vehicle.

NIH Swiss mice = assay: Compound safety in mice, dose escalation; type: in vivo; details: three i.p. injections 20x, 50x, 100xIC50 in 3 day intervals
Description: Testing of compound safety in mice was done according to an IACUC-approved protocol. The experiment was performed using outbred 8 week old NIH Swiss male mice from Harlan (Indianapolis, Ind.), 4 mice per group. IC50 concentrations were used to calculate in vivo doses based on mouse weight (IC50 in vivo dose equivalent in mg/kg=IC50 in mg/ml×1000, based on the assumption that 1 g of mouse tissues have an approximate volume of 1 ml). The compounds were injected intraperitoneally (i.p.) in 25% DMSO-75% PBS starting from 20×IC50 equivalent of in vitro cytotoxic dose of compounds. […]. The control group of mice received 3 injections of 25% DMSO-75% PBS in intervals of three days. Blood biochemistry analysis was performed by BioReliance (Rockville, Md.).
Five hit compounds, representing both the ARTIS and ARTIK categories (c6, c11, c17, c52 and c85), were selected for in vivo tests based on all of the previous assays. Compound c5 was rejected due to very low microsomal stability (<5% after 1 hour incubation with rat microsomes). The toxicity of the compounds was evaluated in a dose escalation assay in which male NIH Swiss mice (n=4) received three sequential intraperitoneal (i.p.) injections of each compound delivered in 3 day intervals. […]. On the day after the last injection, half of the mice in each group were sacrificed for gross pathology examination and collection of blood for serum biochemistry assays, which include total protein, glucose, bilirubin, and creatinine levels, activity of liver enzymes, and ion concentrations. The remaining mice were sacrificed and evaluated similarly 7 days after the last compound injection. […] A minor decrease in serum glucose concentration (70-80% of control) was observed on the day after the last compound injection in almost all mice, but glucose levels were normal a week later (data not shown). Low serum glucose level might reflect of a weak transient GR-inhibitory effect of the selected compounds.

CWR22R cells = assay: Cell cycle distribution by propidium iodide staining; type: cell-based, human; details: for changes in cell cycle distribution: increase in G1, decrease in S phase; for cells with sub-G1 DNA content (apoptotic): propidium iodide FACS
Description: Analysis of cell cycle distribution was based on staining of DNA content by propidium iodide. 10^5 cells were removed from culture dishes using trypsin, washed with PBS and resuspended in 300 μl 3% BSA in PBS, followed by addition of […] 70% ethanol. Cells were kept at −20° C. for several hours and then stained with 10 μg/ml propidium iodide in the presence of 30 μg/ml RNase A for 2 hrs at 37° C. DNA content was assessed using a FACS Calibur instrument and CellQuest software (Becton Dickinson, Franklin Lakes, N.J.).
To test this possibility, we assessed the cell cycle distribution of CWR22R cells treated with both categories of compounds. […] Therefore, different subsets of compounds inhibiting AR-dependent transcription in androgen-independent PCa cells cause either growth arrest or apoptosis in these cells. Whether a compound causes growth arrest or apoptosis is not determined by the potency of the compound as an inhibitor of AR-dependent transcription (i.e., FIG. 2B).

[1] = tested on: HT1080, HeLa and DU145 cells; assay: Colony formation assay, non-PCa and AR-negative PCa cells; type: cell-based, human; details: 10 μM, 7 days
Description: (§1) Cell Colony Assay: Cells were plated in 24-well plates at a density allowing 6-7 days of exponential growth before confluency. Medium and compound was replaced every 48 hours to minimize the effect of potential compound instability. After 7 days of incubation in the presence of compound, cells were fixed and stained with methylene blue, followed by extraction of the stain with 1% SDS and spectrophotometry at 650 nm. Each assay was run in triplicate and the difference between control and compound-treated wells was determined using Student's t-test.
(§2) This Example provides a description of the effect of the selected compounds on the growth of PCa cells. To test the toxicity of the identified AR inhibitors towards cells of different origins, we performed colony formation assays using a single dose of each compound (10 μM) on several PCa (LNCaP, C4-2, CWR22R and DU145) and two non-PCa (HT1080 and HeLa) cell lines (FIG. 2A). […] These compounds were not weaker inhibitors of AR transcriptional activity in CWR22R or C4-2 cells than compounds that inhibited growth of the cells.

[2] = tested on: AR-expressing PCa cell lines (LNCaP, C4-2, CWR22R); assay: Toxicity to AR-expressing PCa cell lines (colony formation / dose-dependent growth inhibition); type: cell-based, human; details: for toxicity towards AR-expressing PCa cell lines: colony formation, 10 μM, three AR-expressing PCa cell lines; for degree of toxicity to PCa cells (killing vs reduced growth): dose-dependent toxicity, by day 7
Description: as §1
Dose-dependent inhibition of cell growth: Cells were plated at 1×10^3 cells per well in 96-well plates. Compounds were added in a dose range from 1 to 20000 nM in two-fold increments. Each dose was tested in triplicate. Controls were 0.1% DMSO (no effect on cell viability) and 50 μM 9-aminoacridine (complete cell death). Cells were incubated for 6 days and then fixed and stained with methylene blue, followed by extraction of the stain with 1% SDS and spectrophotometry at 650 nm. The assay was run two times and, based on the results, the inhibitory concentration of compound suppressing cell growth by 50% as compared to DMSO (IC50) was calculated by the sigmoid approximation method using CalcuSyn software (Biosoft, Chembridge, UK). Confidence intervals were calculated for each sigmoid.
as §2, with “the cells. […]” for “the cells.”

C4-2 and CWR22R cells = assay: Colony formation assay, androgen-independent C4-2 and CWR22R cells; type: cell-based, human; details: 10 μM, 7 days
Description: (§3) Cell Colony Assay: Cells were plated in 24-well plates at a density allowing 6-7 days of exponential growth before confluency. Medium and compound was replaced every 48 hours to minimize the effect of potential compound instability. After 7 days of incubation in the presence of compound, cells were fixed and stained with methylene blue, followed by extraction of the stain with 1% SDS and spectrophotometry at 650 nm. Each assay was run in triplicate and the difference between control and compound-treated wells was determined using Student's t-test. This Example provides a description of the effect of the selected compounds on the growth of PCa cells. To test the toxicity of the identified AR inhibitors towards cells of different origins, we performed colony formation assays using a single dose of each compound (10 μM) on several PCa (LNCaP, C4-2, CW[…] and DU145) and two non-PCa (HT1080 and HeLa) cell lines (FIG. 2A). […] These compounds were not weaker inhibitors of AR transcriptional activity in CW[…] or C4-2 cells than compounds that inhibited growth of the cells.

LNCaP cells = assay: Colony formation assay, LNCaP cells; type: cell-based, human; details: 10 μM, 7 days
Description: as §3

Row | Compound | C4-2 tumor growth (C4-2 tumors) | toxicity in mice (visual inspection, gross pathology) (NIH Swiss mice) | changes in cell cycle distribution (CWR22R cells) | cells with sub-G1 DNA content (apoptotic) (CWR22R cells) | growth of / toxicity towards non-PCa cells or AR-negative PCa cells (DU145) [1] | toxicity towards AR-expressing PCa cell lines [2] | degree of toxicity to PCa cells (killing vs reduced growth) [2] | growth of androgen-independent C4-2 and CWR22R cells (C4-2 and CWR22R cells) | growth of androgen-sensitive LNCaP cells (LNCaP cells)
1 | Clc1ccccc1C1Nc2cccc3cccc(c23)N1 [c6] | clear suppression of C4-2 tumor growth | generally non-toxic | cell cycle arrest | did not result in appearance of cells with sub-G1 DNA content | no toxicity | different degrees of toxicity; also recorded: suppress growth of all | reduced growth as compared to untreated control cells, but not obvious cell death | – | –
2 | CC1=C(C(=O)OCCc2ccccc2)C(c2ccc(Cl)cc2)C2=C(CCCC2=O)N1 (centres unmarked) [c8] | – | – | – | – | – | – | – | do not affect growth | suppressed growth of LNCaP cells; also recorded: suppress growth of androgen-sensitive LNCaP cells
3 | CC(C)(C)c1ccc(C(=O)Nc2ccc(NC(=O)c3ccc4c(c3)OCCO4)cc2)cc1 [c11] | clear suppression of C4-2 tumor growth | generally non-toxic | cell cycle arrest | did not result in appearance of cells with sub-G1 DNA content | no toxicity | different degrees of toxicity; also recorded: suppress growth of all | reduced growth as compared to untreated control cells, but not obvious cell death | – | –
4 | CC(C)c1ccc2oc(-c3cccc(NC(=S)NC(=O)c4ccccc4Br)c3)nc2c1 [c16] | – | – | – | – | – | – | – | do not affect growth | suppressed growth of LNCaP cells; also recorded: suppress growth of androgen-sensitive LNCaP cells
5 | O=C(NC(=S)Nc1nc(-c2ccccc2)cs1)c1ccc(-c2ccccc2)cc1 [c17] | did not | – | – | – | no toxicity | different degrees of toxicity; also recorded: suppress growth of all | reduced growth as compared to untreated control cells, but not obvious cell death | – | –
6 | C=CCc1ccccc1OCCOc1ccc(C=Nn2cnnc2)cc1OC [c18] | – | – | – | – | no toxicity | different degrees of toxicity; also recorded: suppress growth of all | reduced growth as compared to untreated control cells, but not obvious cell death | – | –
7 | C=CCc1ccc(OCCCOc2ccccc2C(C)=O)c(OC)c1 [c47] | – | – | – | – | – | – | – | do not affect growth | suppressed growth of LNCaP cells; also recorded: suppress growth of androgen-sensitive LNCaP cells
8 | c1ccc(CNc2ccc(-c3nc4ccccc4o3)cc2)cc1 [c55] | – | – | – | – | – | – | – | do not affect growth | suppressed growth of LNCaP cells; also recorded: suppress growth of androgen-sensitive LNCaP cells
9 | Cc1ccc(OCC(=O)Nc2ccc(Cl)c([N+](=O)[O-])c2)c(C)c1 [c61] | – | – | – | – | – | – | – | do not affect growth | suppressed growth of LNCaP cells; also recorded: suppress growth of androgen-sensitive LNCaP cells
10 | FC(F)(F)c1ccccc1CN1CCN(Cc2c[nH]c3ccccc23)CC1 [c66] | – | – | – | – | exception | – | – | – | –
